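The compound was tested at five concentrations on cells cultured in 96-well plates, with a 48-hour exposure period. TGI denotes the concentration required for complete inhibition of growth.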
Tests used:
Assay in all cases: NCI tumour cell line growth inhibition, 48 h
[1] = tested on: T-47D breast
[2] = tested on: CCRF-CEM leukemia
[3] = tested on: UACC-257 melanoma
[4] = tested on: ACHN renal
[5] = tested on: KM12 colon
[6] = tested on: HOP-62 NSCLC
[7] = tested on: SW-620 colon
[8] = tested on: MDA-MB-435
[9] = tested on: SF-539 CNS
[10] = tested on: RPMI-8226 leukemia
[11] = tested on: 786-0 renal
[12] = tested on: UO-31 renal
[13] = tested on: SN12C renal
[14] = tested on: NCI-H460 lung
[15] = tested on: SF-268 CNS
[16] = tested on: NCI/ADR-RES ovarian
[17] = tested on: COLO 205 colon
[18] = tested on: TK-10 renal
[19] = tested on: NCI-H522 lung
[20] = tested on: SK-OV-3 ovarian
[21] = tested on: SNB-75 CNS
[22] = tested on: SF-295 CNS
[23] = tested on: OVCAR-5 ovarian
[24] = tested on: OVCAR-4 ovarian
[25] = tested on: HCC-2998 colon
[26] = tested on: A549 NSCLC
[27] = tested on: SR leukemia
[28] = tested on: MDA-N
[29] = tested on: SK-MEL-5 melanoma
[30] = tested on: HS 578T breast
[31] = tested on: OVCAR-8 ovarian
[32] = tested on: HCT-15 colon
[33] = tested on: SNB-19 CNS
[34] = tested on: MCF7 breast
[35] = tested on: MDA-MB-231 breast
[36] = tested on: PC-3 prostate
[37] = tested on: SK-MEL-28 melanoma
[38] = tested on: K-562 leukemia
[39] = tested on: HCT-116 colon
[40] = tested on: U251 CNS
[41] = tested on: M14 melanoma
[42] = tested on: HL-60(TB) leukemia
[43] = tested on: EKVX NSCLC
[44] = tested on: IGROV1 ovarian
[45] = tested on: MOLT-4 leukemia
[46] = tested on: LOX IMVI melanoma
[47] = tested on: DU-145 prostate
[48] = tested on: UACC-62 melanoma
[49] = tested on: CAKI-1 renal
[50] = tested on: HOP-92 NSCLC
[51] = tested on: SK-MEL-2 melanoma
[52] = tested on: HT29 colon
[53] = tested on: NCI-H23 lung
[54] = tested on: OVCAR-3 ovarian
[55] = tested on: RXF 393 renal
[56] = tested on: A498 renal
[57] = tested on: BT-549 breast
[58] = tested on: MALME-3M melanoma

Nc1ccc(Sc2nnc(N)s2)cc1
TGI [1]: > 100 µM
TGI [2]: > 100 µM
TGI [3]: > 100 µM
TGI [4]: > 100 µM
TGI [5]: > 100 µM
TGI [6]: > 100 µM
TGI [7]: > 100 µM
TGI [8]: > 100 µM
TGI [9]: > 100 µM
TGI [10]: > 100 µM
TGI [11]: > 100 µM
TGI [12]: > 100 µM
TGI [13]: > 100 µM
TGI [14]: > 100 µM
TGI [15]: > 100 µM
TGI [16]: > 100 µM
TGI [17]: > 100 µM
TGI [18]: > 100 µM
TGI [19]: > 100 µM
TGI [20]: > 100 µM
TGI [21]: > 100 µM
TGI [22]: > 100 µM
TGI [23]: > 100 µM
TGI [24]: > 100 µM
TGI [25]: > 100 µM
TGI [26]: > 100 µM
TGI [27]: > 100 µM
TGI [28]: > 100 µM
TGI [29]: > 100 µM
TGI [30]: > 100 µM
TGI [31]: > 100 µM
TGI [32]: > 100 µM
TGI [33]: > 100 µM
TGI [34]: > 100 µM
TGI [35]: > 100 µM
TGI [36]: > 100 µM
TGI [37]: > 100 µM
TGI [38]: > 100 µM
TGI [39]: > 100 µM
TGI [40]: > 100 µM
TGI [41]: > 100 µM
TGI [42]: > 100 µM
TGI [43]: > 100 µM
TGI [44]: > 100 µM
TGI [45]: > 100 µM

NC(C/C=C/P(=O)(O)O)C(=O)O (configuration not stated)
TGI [46]: > 100 µM
TGI [1]: > 100 µM
TGI [2]: > 100 µM
TGI [3]: > 100 µM
TGI [4]: > 100 µM
TGI [47]: > 100 µM
TGI [5]: > 100 µM
TGI [7]: > 100 µM
TGI [8]: > 100 µM
TGI [9]: > 100 µM
TGI [48]: > 100 µM
TGI [12]: > 100 µM
TGI [13]: > 100 µM
TGI [14]: > 100 µM
TGI [15]: > 100 µM
TGI [16]: > 100 µM
TGI [49]: 32.8 µM
TGI [50]: > 100 µM
TGI [17]: > 100 µM
TGI [51]: > 100 µM
TGI [18]: > 100 µM
TGI [19]: > 100 µM
TGI [52]: > 100 µM
TGI [20]: > 100 µM
TGI [21]: > 100 µM
TGI [22]: > 100 µM
TGI [23]: > 100 µM
TGI [24]: > 100 µM
TGI [53]: > 100 µM
TGI [25]: > 100 µM
TGI [26]: > 100 µM
TGI [27]: > 100 µM
TGI [28]: > 100 µM
TGI [29]: > 100 µM
TGI [30]: > 100 µM
TGI [54]: > 100 µM
TGI [31]: > 100 µM
TGI [32]: > 100 µM
TGI [33]: > 100 µM
TGI [34]: > 100 µM
TGI [35]: > 100 µM
TGI [36]: > 100 µM
TGI [37]: > 100 µM
TGI [38]: > 100 µM
TGI [39]: > 100 µM
TGI [40]: > 100 µM
TGI [41]: > 100 µM
TGI [42]: > 100 µM
TGI [43]: > 100 µM
TGI [44]: > 100 µM
TGI [55]: > 100 µM
TGI [45]: > 100 µM

O=c1c(Nc2ccccc2)cn(CCOc2ccccc2)c(=O)n1CCOc1ccccc1
TGI [46]: > 100 µM
TGI [2]: > 100 µM
TGI [3]: > 100 µM
TGI [4]: > 100 µM
TGI [47]: > 100 µM
TGI [5]: > 100 µM
TGI [6]: 41.3 µM
TGI [7]: > 100 µM
TGI [8]: > 100 µM
TGI [48]: > 100 µM
TGI [10]: > 100 µM
TGI [56]: > 100 µM
TGI [11]: > 100 µM
TGI [12]: > 100 µM
TGI [13]: > 100 µM
TGI [14]: > 100 µM
TGI [15]: 67.6 µM
TGI [16]: > 100 µM
TGI [49]: > 100 µM
TGI [50]: 83.4 µM
TGI [57]: 72.3 µM
TGI [17]: > 100 µM
TGI [19]: 99.5 µM
TGI [52]: > 100 µM
TGI [22]: > 100 µM
TGI [23]: > 100 µM
TGI [24]: 54.4 µM
TGI [53]: > 100 µM
TGI [25]: > 100 µM
TGI [26]: > 100 µM
TGI [27]: > 100 µM
TGI [28]: > 100 µM
TGI [29]: > 100 µM
TGI [30]: 76.8 µM
TGI [54]: > 100 µM
TGI [32]: > 100 µM
TGI [33]: > 100 µM
TGI [34]: > 100 µM
TGI [36]: > 100 µM
TGI [58]: > 100 µM
TGI [37]: > 100 µM
TGI [38]: > 100 µM
TGI [39]: > 100 µM
TGI [40]: > 100 µM
TGI [41]: > 100 µM
TGI [42]: > 100 µM
TGI [43]: > 100 µM
TGI [44]: > 100 µM
TGI [55]: > 100 µM
TGI [45]: > 100 µM

From PubChem BioAssay (NCI)
